Reference: patent publication US20230117034A1, “PYRAZOLOTRIAZINES” (Bayer Aktiengesellschaft, priority 2019, published 2023)

Legend:
[1] = biological target: T1, CYCLIN K (nuclear staining in CAL-120 cells) (Homo sapiens, UniProt O75909); assay: CYCLIN K nuclear protein level: immunofluorescence high content analysis (CAL-120); assay type: cell-based; conditions: 24 h, 50% reduction of nuclear CCNK staining intensity, median, read-out: CYCLIN K degradation IF, DC50-[mol/l] (median)
T1 construct: endogenous in cells; host or cells: CAL-120 human breast cancer cells (DSMZ ACC 459)
T1 sequence (O75909 whole entry): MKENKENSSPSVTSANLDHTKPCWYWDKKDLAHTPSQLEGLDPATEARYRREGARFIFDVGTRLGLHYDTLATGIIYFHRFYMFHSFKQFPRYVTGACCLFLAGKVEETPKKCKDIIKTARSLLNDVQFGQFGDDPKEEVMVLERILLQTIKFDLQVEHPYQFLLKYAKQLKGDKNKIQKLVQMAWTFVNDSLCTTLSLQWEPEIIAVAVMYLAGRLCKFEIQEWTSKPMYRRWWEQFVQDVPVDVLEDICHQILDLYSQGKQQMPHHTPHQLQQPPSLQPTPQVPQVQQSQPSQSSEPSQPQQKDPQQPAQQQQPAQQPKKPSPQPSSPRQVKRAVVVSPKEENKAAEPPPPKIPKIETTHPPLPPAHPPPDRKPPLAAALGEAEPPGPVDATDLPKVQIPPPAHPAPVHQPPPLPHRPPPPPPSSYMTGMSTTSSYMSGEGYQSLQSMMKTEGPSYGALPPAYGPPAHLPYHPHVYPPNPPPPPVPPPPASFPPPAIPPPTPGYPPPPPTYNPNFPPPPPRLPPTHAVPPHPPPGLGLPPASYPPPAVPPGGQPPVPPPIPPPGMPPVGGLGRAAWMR
T1 sequence (Q9NYV4 whole entry partner): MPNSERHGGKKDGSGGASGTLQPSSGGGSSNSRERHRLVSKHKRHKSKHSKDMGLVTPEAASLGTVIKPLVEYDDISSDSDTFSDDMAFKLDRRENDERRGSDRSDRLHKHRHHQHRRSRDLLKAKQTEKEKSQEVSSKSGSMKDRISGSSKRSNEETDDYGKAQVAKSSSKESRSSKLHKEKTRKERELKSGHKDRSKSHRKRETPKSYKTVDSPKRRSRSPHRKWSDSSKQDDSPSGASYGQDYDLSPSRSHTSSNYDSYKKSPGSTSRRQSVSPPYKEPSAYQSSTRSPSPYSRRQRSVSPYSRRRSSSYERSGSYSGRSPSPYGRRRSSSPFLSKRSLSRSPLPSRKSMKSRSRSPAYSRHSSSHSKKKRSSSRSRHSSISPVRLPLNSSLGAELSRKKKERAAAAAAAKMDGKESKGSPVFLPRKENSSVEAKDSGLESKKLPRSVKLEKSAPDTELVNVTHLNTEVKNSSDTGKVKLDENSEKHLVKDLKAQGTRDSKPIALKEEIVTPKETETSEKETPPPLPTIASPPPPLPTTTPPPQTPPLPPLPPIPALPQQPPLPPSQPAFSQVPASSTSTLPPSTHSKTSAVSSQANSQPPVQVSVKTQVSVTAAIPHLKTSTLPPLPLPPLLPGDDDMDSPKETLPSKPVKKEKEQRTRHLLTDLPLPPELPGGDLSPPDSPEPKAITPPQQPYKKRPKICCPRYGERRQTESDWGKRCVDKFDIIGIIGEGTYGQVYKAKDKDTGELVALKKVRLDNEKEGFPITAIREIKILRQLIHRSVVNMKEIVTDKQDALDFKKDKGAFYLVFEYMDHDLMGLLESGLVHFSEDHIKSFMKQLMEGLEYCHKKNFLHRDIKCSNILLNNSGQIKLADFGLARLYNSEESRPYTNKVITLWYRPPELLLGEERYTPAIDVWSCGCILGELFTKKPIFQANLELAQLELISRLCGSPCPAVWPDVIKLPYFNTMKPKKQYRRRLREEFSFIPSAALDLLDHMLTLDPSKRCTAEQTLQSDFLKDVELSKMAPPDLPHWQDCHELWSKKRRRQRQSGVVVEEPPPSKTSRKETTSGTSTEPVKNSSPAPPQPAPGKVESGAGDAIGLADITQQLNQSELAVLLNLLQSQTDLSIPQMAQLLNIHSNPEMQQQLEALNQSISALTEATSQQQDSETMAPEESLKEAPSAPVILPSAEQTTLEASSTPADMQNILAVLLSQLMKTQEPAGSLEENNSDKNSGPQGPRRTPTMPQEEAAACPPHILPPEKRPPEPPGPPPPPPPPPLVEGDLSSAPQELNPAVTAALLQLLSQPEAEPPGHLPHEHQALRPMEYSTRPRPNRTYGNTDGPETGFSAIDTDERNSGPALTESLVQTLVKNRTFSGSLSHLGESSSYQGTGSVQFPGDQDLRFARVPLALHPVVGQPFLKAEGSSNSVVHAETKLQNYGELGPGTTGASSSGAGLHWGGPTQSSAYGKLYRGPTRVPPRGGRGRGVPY
How it was run: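 CAL-120 breast cancer cells treated in dose-response for 24 h at 37 °C, PFA-fixed and immunostained for cyclin K with Hoechst counterstain. Confocal imaging quantified nuclear intensity; DC50 is the concentration giving 50% reduction of nuclear CCNK staining, normalized to DMSO and control.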

[2] = biological target: T2, CDK2/CycE (Homo sapiens, UniProt P24941); assay: CDK2/CycE kinase assay (TR-FRET, 2 mM ATP); assay type: biochemical; conditions: 2 mM ATP (high ATP); median; read-out: CDK2/CyclinE, 2 mM ATP (high ATP), IC50 (median)
T2 construct: purchased ProQinase GmbH (Freiburg, Germany); host or cells: insect cells (Sf9)
How it was run: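 GST-tagged human CDK2 and CycE from Sf9 cells, about 10 ng/ml, pre-incubated 15 min at 22 °C with compound in Tris/HCl pH 8.0 buffer. Reaction with 2 mM ATP and 0.75 µM biotinylated peptide for 25 min at 22 °C. Phospho-RB antibody TR-FRET (665/620 nm ratio) read after 1 h; data normalised to no-inhibitor and no-enzyme controls.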

SMILES | DC50 [1] | IC50 [2]
FC(F)(F)c1ccc2[nH]c(CNc3nc(N4CC5CCC(C4)N5)nc4c(C5CC5)cnn34)nc2c1 [Example 327, 8-cyclopropyl-2-(3,8-diazabicyclo[3.2.1]octan-3-yl)-N-{[5-(trifluoromethyl)-1H-benzimidazol-2-yl]methyl}pyrazolo[1,5-a][1,3,5]triazin-4-amine] | 0.493 nM | > 18700 nM
CN(CC(C)(C)O)c1nc(NCc2nc3cc(F)c(F)cc3[nH]2)n2ncc(C3CC3)c2n1 [Example 319, 1-[(8-cyclopropyl-4-{[(5,6-difluoro-1H-benzimidazol-2-yl)methyl]amino}pyrazolo[1,5-a][1,3,5]triazin-2-yl)(methyl)amino]-2-methylpropan-2-ol] | 0.492 nM | 12100 nM
Fc1c(Cl)ccc2[nH]c(CNc3nc(N4CCOCC4)nc4c(C5CC5)cnn34)nc12 [Example 370, N-[(5-chloro-4-fluoro-1H-benzimidazol-2-yl)methyl]-8-cyclopropyl-2-(morpholin-4-yl)pyrazolo[1,5-a][1,3,5]triazin-4-amine] | 0.258 nM | > 20000 nM
Fc1cc2nc(CNc3nc(N4CCOCC4)nc4c(C(F)(F)F)cnn34)[nH]c2cc1F [Example 333, N-[(5,6-difluoro-1H-benzimidazol-2-yl)methyl]-2-(morpholin-4-yl)-8-(trifluoromethyl)pyrazolo[1,5-a][1,3,5]triazin-4-amine] | 0.113 nM | > 20000 nM
FC(F)(F)c1ccc2[nH]c(CNc3nc(N4CC5CCC(C4)N5)nc4c(Br)cnn34)nc2c1 [Example 354, 8-bromo-2-(3,8-diazabicyclo[3.2.1]octan-3-yl)-N-{[5-(trifluoromethyl)-1H-benzimidazol-2-yl]methyl}pyrazolo[1,5-a][1,3,5]triazin-4-amine] | 1.65 nM | –
Cc1[nH]c(CNc2nc(N3CCOCC3)nc3c(Br)cnn23)nc1-c1ccccc1 [Example 27, 8-bromo-N-[(5-methyl-4-phenyl-1H-imidazol-2-yl)methyl]-2-(morpholin-4-yl)pyrazolo[1,5-a][1,3,5]triazin-4-amine] | 66.3 nM | 17100 nM
Cc1cc2nc(CNc3nc(N4CC5CCC(C4)N5)nc4c(Br)cnn34)[nH]c2cc1C [Example 353, 8-bromo-2-(3,8-diazabicyclo[3.2.1]octan-3-yl)-N-[(5,6-dimethyl-1H-benzimidazol-2-yl)methyl]pyrazolo[1,5-a][1,3,5]triazin-4-amine] | 0.644 nM | 2860 nM
Fc1c(Cl)ccc2[nH]c(CNc3nc(N4CC5CCC(C4)N5)nc4c(Br)cnn34)nc12 [Example 380, 8-bromo-N-[(5-chloro-4-fluoro-1H-benzimidazol-2-yl)methyl]-2-(3,8-diazabicyclo[3.2.1]octan-3-yl)pyrazolo[1,5-a][1,3,5]triazin-4-amine] | 0.22 nM | 9260 nM
CN1CCN(c2nc(NCc3nc4cc(F)c(F)cc4[nH]3)n3ncc(Br)c3n2)CC1 [Example 346, 8-bromo-N-[(5,6-difluoro-1H-benzimidazol-2-yl)methyl]-2-(4-methylpiperazin-1-yl)pyrazolo[1,5-a][1,3,5]triazin-4-amine] | 0.149 nM | > 20000 nM
Fc1cc2nc(CNc3nc(N4CC5CCC(C4)N5)nc4c(Br)cnn34)[nH]c2cc1F [Example 355, 8-bromo-2-(3,8-diazabicyclo[3.2.1]octan-3-yl)-N-[(5,6-difluoro-1H-benzimidazol-2-yl)methyl]pyrazolo[1,5-a][1,3,5]triazin-4-amine] | 0.481 nM | > 18600 nM
Cc1ccnc2[nH]c(CNc3nc(N4CCN(C)CC4)nc4c(C(C)C)cnn34)nc12 [Example 32, N-[(7-methyl-3H-imidazo[4,5-b]pyridin-2-yl)methyl]-2-(4-methylpiperazin-1-yl)-8-(propan-2-yl)pyrazolo[1,5-a][1,3,5]triazin-4-amine] | – | 15600 nM
FC(F)(F)Oc1ccc2[nH]c(CNc3nc(N4C[C@H]5CC[C@@H](C4)N5)nc4c(Br)cnn34)nc2c1 [Example 382, 8-bromo-2-[(1R,5S)-3,8-diazabicyclo[3.2.1]octan-3-yl]-N-{[5-(trifluoromethoxy)-1H-benzimidazol-2-yl]methyl}pyrazolo[1,5-a][1,3,5]triazin-4-amine] | – | 14200 nM
CN1CCCN(c2nc(NCc3nc4ccccc4[nH]3)n3ncc(Br)c3n2)CC1 [Example 390, N-[(1H-benzimidazol-2-yl)methyl]-8-bromo-2-(4-methyl-1,4-diazepan-1-yl)pyrazolo[1,5-a][1,3,5]triazin-4-amine] | – | > 20000 nM

Other lines, results leading:

DC50 [1] | IC50 [2] | SMILES
0.827 nM | 1160 nM | Cc1cc2nc(CNc3nc(N4CCOCC4)nc4c(Br)cnn34)[nH]c2cc1C [Example 340, 8-bromo-N-[(5,6-dimethyl-1H-benzimidazol-2-yl)methyl]-2-(morpholin-4-yl)pyrazolo[1,5-a][1,3,5]triazin-4-amine]
0.101 nM | 9080 nM | CN(CC(C)(C)O)c1nc(NCc2nc3cc(F)c(F)cc3[nH]2)n2ncc(Br)c2n1 [Example 347]
1.36 nM | 1000 nM | Cc1cc2nc(CNc3nc(N(C)CC(C)(C)O)nc4c(C5CC5)cnn34)[nH]c2cc1C [Example 321, 1-[(8-cyclopropyl-4-{[(5,6-dimethyl-1H-benzimidazol-2-yl)methyl]amino}pyrazolo[1,5-a][1,3,5]triazin-2-yl)(methyl)amino]-2-methylpropan-2-ol]
– | 3390 nM | Brc1cnn2c(NCc3nc4ccccc4[nH]3)nc(N3CCN4CCC3C4)nc12 (stereo not shown) [Example 350, N-[(1H-benzimidazol-2-yl)methyl]-8-bromo-2-(1,4-diazabicyclo[3.2.1]octan-4-yl)pyrazolo[1,5-a][1,3,5]triazin-4-amine]
– | 9460 nM | Clc1cc2nc(CNc3nc(N4CCOCC4)nc4c(Br)cnn34)[nH]c2cc1Cl [Example 329, 8-bromo-N-[(5,6-dichloro-1H-benzimidazol-2-yl)methyl]-2-(morpholin-4-yl)pyrazolo[1,5-a][1,3,5]triazin-4-amine]
– | 5570 nM | CN(CC(C)(C)O)c1nc(NCc2nc3c(F)cccc3[nH]2)n2ncc(Cl)c2n1 [Example 366, 1-[(8-chloro-4-{[(4-fluoro-1H-benzimidazol-2-yl)methyl]amino}pyrazolo[1,5-a][1,3,5]triazin-2-yl)(methyl)amino]-2-methylpropan-2-ol]
– | 4710 nM | Cc1cc2nc(CNc3nc(N4CCOCC4)nc4c(C5CC5)cnn34)[nH]c2cc1C [Example 320, 8-cyclopropyl-N-[(5,6-dimethyl-1H-benzimidazol-2-yl)methyl]-2-(morpholin-4-yl)pyrazolo[1,5-a][1,3,5]triazin-4-amine]
– | 4910 nM | Brc1cnn2c(NCc3nc4ccccc4[nH]3)nc(N3C[C@H]4CC[C@@H]3CO4)nc12 (single isomer, unassigned; enantiomer 2) [Example 391, N-[(1H-benzimidazol-2-yl)methyl]-8-bromo-2-{[1R or S-(1R*,4R*)]-2-oxa-5-azabicyclo[2.2.2]octan-5-yl}pyrazolo[1,5-a][1,3,5]triazin-4-amine (Enantiomer 2)]
– | 3950 nM | Brc1cnn2c(NCc3nc4ccccc4[nH]3)nc(N3C[C@H]4CC[C@@H]3CO4)nc12 (single isomer, unassigned) [Example 383, N-[(1H-benzimidazol-2-yl)methyl]-8-bromo-2-{[1R or S-(1R*,4R*)]-2-oxa-5-azabicyclo[2.2.2]octan-5-yl}pyrazolo[1,5-a][1,3,5]triazin-4-amine]
